One block for each compound: values may come before it. The source made the active and inactive calls. No cut-off for these calls is given here.
Assays:
Histone deacetylase 1 [1] = target: T1, Histone deacetylase 1 (Homo sapiens, UniProt Q13547); test: Inhibition of FLAG tagged full length human HDAC1 expressed in HEK293T cells using acyl-H3K9 peptide as substrate preincubated with compound for 20 mins followed by substrate addition and measured after 120 mins by HPLC analysis
Histone deacetylase 4 [2] = target: T2, Histone deacetylase 4 (Homo sapiens, UniProt P56524); test: Inhibition of FLAG tagged full length human HDAC4 expressed in HEK293T cells using acyl-H3K9 peptide as substrate preincubated with compound for 20 mins followed by substrate addition and measured after 120 mins by HPLC analysis
T2 sequence (P56524 whole entry): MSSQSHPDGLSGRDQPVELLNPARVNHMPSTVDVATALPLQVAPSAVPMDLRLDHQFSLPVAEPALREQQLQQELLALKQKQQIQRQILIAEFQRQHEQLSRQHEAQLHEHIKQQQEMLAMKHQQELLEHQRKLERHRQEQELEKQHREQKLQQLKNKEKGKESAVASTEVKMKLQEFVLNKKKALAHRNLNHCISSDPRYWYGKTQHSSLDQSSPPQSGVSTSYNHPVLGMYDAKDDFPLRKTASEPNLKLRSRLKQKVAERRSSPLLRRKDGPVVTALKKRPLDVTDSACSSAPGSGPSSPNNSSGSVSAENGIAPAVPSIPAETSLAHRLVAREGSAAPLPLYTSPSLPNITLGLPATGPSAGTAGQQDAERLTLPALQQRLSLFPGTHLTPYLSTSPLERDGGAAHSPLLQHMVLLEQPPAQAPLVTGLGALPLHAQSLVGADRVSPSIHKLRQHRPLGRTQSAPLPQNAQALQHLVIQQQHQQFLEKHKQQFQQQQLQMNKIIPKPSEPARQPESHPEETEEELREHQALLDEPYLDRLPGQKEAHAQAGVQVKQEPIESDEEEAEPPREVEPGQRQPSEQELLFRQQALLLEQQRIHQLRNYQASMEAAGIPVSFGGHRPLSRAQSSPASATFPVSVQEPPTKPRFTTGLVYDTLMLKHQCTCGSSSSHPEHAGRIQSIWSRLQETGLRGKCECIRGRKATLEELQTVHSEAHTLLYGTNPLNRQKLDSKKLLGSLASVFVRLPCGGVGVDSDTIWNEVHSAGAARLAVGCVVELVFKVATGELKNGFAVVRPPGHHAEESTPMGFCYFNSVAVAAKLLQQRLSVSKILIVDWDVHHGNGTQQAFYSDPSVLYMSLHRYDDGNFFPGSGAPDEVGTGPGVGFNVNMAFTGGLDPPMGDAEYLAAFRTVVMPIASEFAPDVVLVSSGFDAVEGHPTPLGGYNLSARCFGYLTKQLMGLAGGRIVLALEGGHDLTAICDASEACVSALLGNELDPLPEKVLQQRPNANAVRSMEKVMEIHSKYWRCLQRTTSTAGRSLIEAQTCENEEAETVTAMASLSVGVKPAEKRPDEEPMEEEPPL

Histone deacetylase 8 [3] = target: T3, Histone deacetylase 8 (Homo sapiens, UniProt Q9BY41); test: Inhibition of FLAG tagged full length human HDAC8 expressed in HEK293T cells using acyl-H3K9 peptide as substrate preincubated with compound for 20 mins followed by substrate addition and measured after 120 mins by HPLC analysis; assay type: cell-based
T3 sequence (Q9BY41 whole entry): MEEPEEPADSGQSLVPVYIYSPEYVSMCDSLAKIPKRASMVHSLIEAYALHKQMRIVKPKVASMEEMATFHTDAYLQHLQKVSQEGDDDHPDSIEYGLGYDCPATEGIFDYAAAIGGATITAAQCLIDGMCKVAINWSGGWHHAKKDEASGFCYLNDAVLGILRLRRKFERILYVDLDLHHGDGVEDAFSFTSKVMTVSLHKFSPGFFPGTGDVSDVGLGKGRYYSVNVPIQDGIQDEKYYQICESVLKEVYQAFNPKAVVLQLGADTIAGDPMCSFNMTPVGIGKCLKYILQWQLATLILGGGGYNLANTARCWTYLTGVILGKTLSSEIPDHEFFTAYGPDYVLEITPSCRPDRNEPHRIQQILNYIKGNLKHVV

[4] = Lipophilicity, logD of the compound in 1-octanol/PBS buffer at pH 7.4 by HPLC/UV analysis; assay type: physicochemical; conditions: octanol/water
Histone deacetylase 3 = Histone deacetylase 3 (Homo sapiens, UniProt O15379); test: Inhibition of HDAC3 (unknown origin)
Sequence of Histone deacetylase 3 (O15379 whole entry): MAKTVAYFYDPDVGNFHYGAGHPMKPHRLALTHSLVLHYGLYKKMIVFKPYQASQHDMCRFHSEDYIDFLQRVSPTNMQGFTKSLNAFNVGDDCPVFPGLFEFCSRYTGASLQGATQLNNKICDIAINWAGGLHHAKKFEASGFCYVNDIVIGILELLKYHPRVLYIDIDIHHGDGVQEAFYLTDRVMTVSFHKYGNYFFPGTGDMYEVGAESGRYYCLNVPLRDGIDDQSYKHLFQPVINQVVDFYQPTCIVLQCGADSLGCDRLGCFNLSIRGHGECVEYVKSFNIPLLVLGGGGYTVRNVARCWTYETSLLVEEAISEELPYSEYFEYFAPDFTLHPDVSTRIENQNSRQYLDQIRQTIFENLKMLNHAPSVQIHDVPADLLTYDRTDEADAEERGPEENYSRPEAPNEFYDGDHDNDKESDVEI

A2780 [5] = test: Induction of apoptosis in human A2780 cells assessed as caspase-3/7 activation at 2 uM incubated for 48 hrs by capase3/7 green dye based analysis relative to control; assay type: functional
A2780cisR [6] = test: Induction of apoptosis in cisplatin resistant human A2780 cisR cells assessed as caspase-3/7 activation at 2 uM incubated for 48 hrs by capase3/7 green dye based analysis relative to control; assay type: functional
CAL-27 [7] = test: Induction of apoptosis in human CAL-27 cells assessed as caspase-3/7 activation at 0.5 uM incubated for 48 hrs by capase3/7 green dye based analysis relative to control; assay type: functional
[8] = Induction of apoptosis in cisplatin resistant human Cal27CisR cells assessed as caspase-3/7 activation at 0.5 uM incubated for 48 hrs by capase3/7 green dye based analysis relative to control; assay type: functional
[9] = Cytotoxicity against human HEK293 cells assessed as reduction in cell viability incubated for 72 hrs by MTT assay; assay type: toxicity, cell-based
A2780cisR [10] = test: cells; conditions: Homo sapiens, 72 h
CAL-27 [11] = test: cells; conditions: Homo sapiens, CAL-27, 72 h
cells = conditions: Homo sapiens, Cal27CisR, 72 h
HL-60 = test: cells; conditions: Homo sapiens, HL-60, 72 h
MV4-11 = test: cells; conditions: Homo sapiens, MV4-11, 72 h
[12] = target: T4, Protein deacetylase HDAC6 (Homo sapiens, UniProt Q9UBN7); test: (§1) Inhibition of N-terminal GST-tagged full length recombinant human HDAC6 (1 to 1215 end residues) expressed in sf9 cells using ZMAL (Z-Lys(Ac)-AMC as fluorogenic substrate preincubated with compound for 60 mins followed by substrate addition and measured after 90 mins by fluorescence based microplate reader analysis
T4 sequence (Q9UBN7 whole entry): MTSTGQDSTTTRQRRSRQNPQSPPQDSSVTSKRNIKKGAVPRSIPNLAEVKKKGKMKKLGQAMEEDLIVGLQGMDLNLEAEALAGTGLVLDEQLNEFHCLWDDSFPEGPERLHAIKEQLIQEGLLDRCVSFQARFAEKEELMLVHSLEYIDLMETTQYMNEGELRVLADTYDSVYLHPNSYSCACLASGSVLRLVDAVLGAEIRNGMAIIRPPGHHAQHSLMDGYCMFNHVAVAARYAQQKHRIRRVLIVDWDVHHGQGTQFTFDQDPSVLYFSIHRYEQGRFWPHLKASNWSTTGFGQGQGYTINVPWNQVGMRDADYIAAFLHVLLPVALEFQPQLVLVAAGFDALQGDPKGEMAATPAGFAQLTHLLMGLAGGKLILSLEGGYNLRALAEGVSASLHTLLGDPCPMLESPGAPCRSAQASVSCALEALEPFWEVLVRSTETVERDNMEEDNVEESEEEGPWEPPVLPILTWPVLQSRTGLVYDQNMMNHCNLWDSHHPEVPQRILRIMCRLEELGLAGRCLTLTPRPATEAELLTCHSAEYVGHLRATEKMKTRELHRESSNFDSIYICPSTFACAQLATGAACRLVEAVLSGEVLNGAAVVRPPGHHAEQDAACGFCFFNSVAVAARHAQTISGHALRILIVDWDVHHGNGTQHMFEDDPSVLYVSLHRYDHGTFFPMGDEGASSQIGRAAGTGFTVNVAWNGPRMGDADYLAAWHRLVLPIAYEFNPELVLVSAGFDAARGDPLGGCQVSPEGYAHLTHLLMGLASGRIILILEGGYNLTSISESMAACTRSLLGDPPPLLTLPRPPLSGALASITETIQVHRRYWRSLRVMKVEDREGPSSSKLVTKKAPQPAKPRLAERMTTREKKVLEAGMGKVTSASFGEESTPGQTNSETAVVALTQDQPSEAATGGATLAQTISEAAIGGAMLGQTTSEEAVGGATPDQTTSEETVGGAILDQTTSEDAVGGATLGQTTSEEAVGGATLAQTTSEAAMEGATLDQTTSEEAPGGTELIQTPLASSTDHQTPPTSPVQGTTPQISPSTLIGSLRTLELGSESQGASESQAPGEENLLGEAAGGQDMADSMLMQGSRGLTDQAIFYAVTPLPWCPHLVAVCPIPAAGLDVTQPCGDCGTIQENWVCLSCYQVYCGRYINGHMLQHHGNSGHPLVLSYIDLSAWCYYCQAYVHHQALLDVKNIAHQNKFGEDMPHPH

[13] = target: T5, Histone deacetylase 8 (Homo sapiens) (UniProt Q9BY41); test: Inhibition of recombinant HDAC8 (unknown origin) at > 10 uM using Bos-Lys(TFA)-AMC as substrate preincubated with compound for 5 mins and measured after 90 mins by NOVOstar microplate reader analysis relative to control; conditions: time 95.0 min
T5 sequence (whole entry): T3 sequence (Q9BY41 whole entry)

Histone deacetylase 8 [14] = target: T3, Histone deacetylase 8; test: Inhibition of recombinant HDAC8 (unknown origin) using Bos-Lys(TFA)-AMC as substrate preincubated with compound for 5 mins and measured after 90 mins by NOVOstar microplate reader analysis
Histone deacetylase 1 [15] = target: T1, Histone deacetylase 1; test: (§2) Inhibition of C-terminal 6-his/FLAG tagged full length human recombinant HDAC1 (1 to 482 end residues) expressed in sf9 cells at 10 uM using ZMAL (Z-Lys(Ac)-AMC as fluorogenic substrate preincubated with compound for 60 mins followed by substrate addition and measured after 90 mins by fluorescence based microplate reader analysis relative to control; conditions: time 150.0 min
[16] = target: Histone deacetylase 2 (Homo sapiens) (UniProt Q92769); test: Inhibition of C-terminal FLAG tagged full length human recombinant HDAC2 (1 to 488 end residues) expressed in sf9 cells at > 10 uM using ZMAL (Z-Lys(Ac)-AMC as fluorogenic substrate preincubated with compound for 60 mins followed by substrate addition and measured after 90 mins by fluorescence based microplate reader analysis relative to control
Sequence of Histone deacetylase 2 (Homo sapiens) (Q92769 whole entry): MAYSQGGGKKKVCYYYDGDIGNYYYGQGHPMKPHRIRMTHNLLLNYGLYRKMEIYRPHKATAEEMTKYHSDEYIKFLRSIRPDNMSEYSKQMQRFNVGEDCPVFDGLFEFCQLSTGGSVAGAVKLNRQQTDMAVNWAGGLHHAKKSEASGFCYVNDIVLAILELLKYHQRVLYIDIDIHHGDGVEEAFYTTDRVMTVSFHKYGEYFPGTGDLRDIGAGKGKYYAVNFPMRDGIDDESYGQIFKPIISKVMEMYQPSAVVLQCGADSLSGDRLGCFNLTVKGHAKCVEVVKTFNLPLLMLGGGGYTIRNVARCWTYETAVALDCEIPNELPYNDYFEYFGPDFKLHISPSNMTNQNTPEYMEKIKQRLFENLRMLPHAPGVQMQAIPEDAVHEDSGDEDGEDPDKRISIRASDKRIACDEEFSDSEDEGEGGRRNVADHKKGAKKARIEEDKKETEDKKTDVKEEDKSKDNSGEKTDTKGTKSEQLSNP

[17] = target: Histone deacetylase 3/Nuclear receptor corepressor 2 (HDAC3/NCoR2) (Homo sapiens) (UniProt O15379+Q9Y618); test: as §2, with “His” for “6-his/FLAG”, “tagged” for “tagged full length”, “HDAC3” for “HDAC1”, “428” for “482”, “residues)/N-terminal GST-tagged human NcoR2” for “residues)”; conditions: time 150.0 min
[18] = target: T6, Protein deacetylase HDAC6 (Homo sapiens) (UniProt Q9UBN7); test: as §1, with “cells at > 10 uM” for “cells”, “analysis relative to control” for “analysis”; conditions: time 150.0 min
T6 sequence (whole entry): T4 sequence (Q9UBN7 whole entry)

Histone deacetylase 4 [19] = target: T2, Histone deacetylase 4; test: Inhibition of recombinant HDAC4 (unknown origin) using Bos-Lys(TFA)-AMC as substrate preincubated with compound for 5 mins and measured after 90 mins by NOVOstar microplate reader analysis
A2780 [20] = test: Inhibition of class I/6 HDAC (unknown origin) in human A2780 cells at < 10 uM using Boc-Lys(epsilon-Ac)-AMC as substrate preincubated with compound for 18 hrs followed by substrate addition and measured after 3 hrs by NOVOstar microplate reader analysis; assay type: cell-based
A2780 cisR = test: Inhibition of class I/6 HDAC (unknown origin) in cisplatin resistant human A2780 cisR cells at < 10 uM using Boc-Lys(epsilon-Ac)-AMC as substrate preincubated with compound for 18 hrs followed by substrate addition and measured after 3 hrs by NOVOstar microplate reader analysis; assay type: cell-based
CAL-27 [21] = test: Inhibition of class I/6 HDAC (unknown origin) in human CAL-27 cells at < 10 uM using Boc-Lys(epsilon-Ac)-AMC as substrate preincubated with compound for 18 hrs followed by substrate addition and measured after 3 hrs by NOVOstar microplate reader analysis; assay type: cell-based
Cal27CisR [22] = test: Inhibition of class I/6 HDAC (unknown origin) in cisplatin resistant human Cal27CisR cells at < 10 uM using Boc-Lys(epsilon-Ac)-AMC as substrate preincubated with compound for 18 hrs followed by substrate addition and measured after 3 hrs by NOVOstar microplate reader analysis; assay type: cell-based
A2780 [23] = test: Cytotoxicity against human A2780 cells at < 100 uM assessed as reduction in cell viability incubated for 72 hrs by MTT assay; assay type: functional, cell-based
A2780cisR [24] = test: Cytotoxicity against cisplatin resistant human A2780 cisR cells at < 100 uM assessed as reduction in cell viability incubated for 72 hrs by MTT assay; assay type: functional, cell-based
CAL-27 [25] = test: Cytotoxicity against human CAL-27 cells at < 100 uM assessed as reduction in cell viability incubated for 72 hrs by MTT assay; assay type: functional, cell-based
Cal27CisR [26] = test: Cytotoxicity against cisplatin resistant human Cal27CisR cells at < 10 uM assessed as reduction in cell viability incubated for 72 hrs by MTT assay; assay type: functional, cell-based

T1 sequence (Q13547 whole entry): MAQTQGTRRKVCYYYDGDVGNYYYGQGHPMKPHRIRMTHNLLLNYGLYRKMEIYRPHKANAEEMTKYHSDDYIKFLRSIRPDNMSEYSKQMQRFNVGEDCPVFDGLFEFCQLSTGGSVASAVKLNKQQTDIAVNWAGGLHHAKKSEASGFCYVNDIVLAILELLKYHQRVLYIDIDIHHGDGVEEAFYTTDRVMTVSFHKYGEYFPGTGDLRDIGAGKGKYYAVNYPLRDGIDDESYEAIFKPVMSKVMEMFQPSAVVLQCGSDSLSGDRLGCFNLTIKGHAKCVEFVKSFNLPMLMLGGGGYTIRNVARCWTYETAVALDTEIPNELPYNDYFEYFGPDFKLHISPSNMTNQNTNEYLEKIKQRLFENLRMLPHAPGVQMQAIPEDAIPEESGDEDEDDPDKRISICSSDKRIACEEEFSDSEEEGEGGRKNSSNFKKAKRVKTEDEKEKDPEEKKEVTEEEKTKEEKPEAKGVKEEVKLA

IC50 (Histone deacetylase 1 [1]): > 100 µM
IC50 (Histone deacetylase 4 [2]): > 100 µM
IC50 (Histone deacetylase 8 [3]): > 100 µM
Structure (SMILES): CCCCCCCCCCCCCCCCNNC(=O)c1cccs1

logD [4]: 3.16
IC50 (Histone deacetylase 3): > 6.67 µM
Structure (SMILES): CN(C)c1ccc(C(=O)N(CC(=O)NCc2ccccc2)Cc2ccc(C(=O)Nc3cc(-c4ccncc4)ccc3N)cc2)cc1

IC50 (A2780cisR [10]): 5.57 µM
IC50 (CAL-27 [11]): 2.96 µM
IC50 (cells): 3.63 µM
IC50 (HL-60): 0.939 µM
IC50 (MV4-11): 0.41 µM
Structure (SMILES): Nc1ccccc1NC(=O)c1ccc(CNC(=O)OCc2cccnc2)cc1 [ENTINOSTAT]
Activity (A2780 [5]): 10%
Activity (A2780cisR [6]): 15%
Activity (CAL-27 [7]): <5%
Activity [8]: <5%
IC50 at 72 h [9]: 7.11 µM

IC50 [12]: > 10 µM
inhibition [13]: < 25%
IC50 (Histone deacetylase 8 [14]): > 10 µM
inhibition (Histone deacetylase 1 [15]): 37%
inhibition [16]: < 25%
inhibition [17]: 32%
inhibition [18]: < 25%
IC50 (Histone deacetylase 4 [19]): > 10 µM
Structure (SMILES): CN(C)c1ccc(C(=O)N(CC(=O)NCc2ccccc2)Cc2ccc(C(=O)NNC/C=C/c3ccccc3)cc2)cc1
inhibition (A2780 [20]): inactive
inhibition (A2780 cisR): inactive
inhibition (CAL-27 [21]): inactive
inhibition (Cal27CisR [22]): inactive
Activity (A2780 [23]): inactive
Activity (A2780cisR [24]): inactive
Activity (CAL-27 [25]): inactive
Activity (Cal27CisR [26]): inactive

Source: ChEMBL document CHEMBL6120974, “Hydrazide-Based Class I Selective HDAC Inhibitors Completely Reverse Chemoresistance Synergistically in Platinum-Resistant Solid Cancer Cells” (J Med Chem, 2024)
